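1) Cells in 96-well plates. 2) Compound, 48 h, 5 concentrations. 3) Linear interpolation between surrounding doses. 4) Unreached endpoint = highest concentration. At the TGI there is no net growth.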
These molecules were tested on RPMI-8226 leukemia (assay: growth of human tumour cells (NCI), 48 h).
`COC(=O)C1=C(C(=O)OC)c2cc(OC)ccc2C(C(=S)N(C)C)S1` (configuration not stated) showed a TGI of over 100 µM.

Each molecule was assayed on SF-295 CNS (assay: growth of human tumour cells (NCI), 48 h).
Work on `Cc1ccc(N=Nc2c(C)c(C#N)c(=S)n(C3OC(CO)C(O)C(O)C3O)c2C)cc1` (configuration not stated) yielded a TGI of over 100 µM.
Work on `C=C(CC[C@@H](C)[C@H]1CC[C@@]2(C)C3=C(CC[C@]12C)[C@@]1(C)CC[C@H](O)[C@@H](C)C1CC3)C(C)C` (some centres not stated) yielded a TGI of 2.27 µM.
Work on `COc1ccc(N2C(=O)c3cc(C)cnc3S2(=O)=O)cc1` yielded a TGI of over 100 µM.
`CC(C)=CC(=O)C[C@H]1C(=O)O[C@@H]2C[C@H]3C(C)=CC(=O)[C@@H](O)[C@]3(C)[C@H]3[C@@]4(O)OC[C@]32[C@@H]1[C@@H](C)[C@H]4O` gave a TGI of 0.152 µM.
`Cn1c(=O)c2[nH]c(CCCCC(=O)O)nc2n(C)c1=O` was tested, and the TGI was over 100 µM.
`Cc1cc(C)n(C2OC(CO)C(O)C(O)C2O)c(=S)c1C#N` (configuration not stated) was tested, and the TGI was over 100 µM.
In the case of `Cc1ccc(-c2c3nc(c(-c4ccc(C)cc4)c4ccc([nH]4)c(-c4ccc(OCC5COC(C)(C)O5)cc4)c4nc(c(-c5ccc(C)cc5)c5ccc2[nH]5)C=C4)C=C3)cc1` (configuration not stated), the TGI is reported as over 31.6 µM.
In the case of `Cc1ccccc1N=Nc1ccc(N/N=C2/CCCNC2=O)c(C)c1`, the TGI is reported as over 100 µM.
`CCn1c2ccccc2n2c(=O)c3c(c(C#N)c12)CCCC3` showed a TGI of over 100 µM.
With `CN(/N=C/c1ccc(OCc2cccc(COc3ccc(C=O)cc3)n2)cc1)c1cnn(-c2ccc(Cl)cc2Cl)c(=O)c1Cl` the TGI was over 100 µM.
Work on `CC12CCC([C@H](C(O)C3CCCCC3)C1=O)C2(C)C` (some centres not stated) yielded a TGI of over 100 µM.
Work on `C=C1CC[C@H](O)C(C)(C)[C@@H]1CC/C(C)=C/CC/C=C(\C)CC/C=C(\C)CCC=C(C)C` yielded a TGI of over 100 µM.
With `c1ccc(CSP234N5CCN2CCN3CCN4CC5)c(CSP234N5CCN2CCN3CCN4CC5)c1` the TGI was over 100 µM.
Work on `COc1cc2c(cc1OC)CCc1cc(OC)c(OC)cc1CC2` yielded a TGI of over 100 µM.
`COc1ccc(N2C(=O)C3ON(C(C(N)=O)c4ccccc4)C(c4cc5ccccc5c5ccccc45)C3C2=O)cc1` (configuration not stated) gave a TGI of over 50 µM.
`O=c1[nH]c(Nc2nc3ccccc3[nH]2)nc2c1CCC2` was tested, and the TGI was over 100 µM.
Work on `O=C1N[C@@H](c2c[nH]c3cc(Br)ccc23)C(=O)N[C@H]1c1c[nH]c2cc(Br)ccc12` yielded a TGI of over 100 µM.
For `COc1ccccc1N1CCN(CCCN2/C(=C(\O)c3ccccc3)C(=O)c3c(C)cc(C)nc3S2(=O)=O)CC1`, the TGI was over 100 µM.
With `c1ccc2c(c1)nc1n2CNC1` the TGI was over 100 µM.
Work on `Cc1ccc(C)c(COCCOCn2ccc(N)nc2=O)c1` yielded a TGI of over 100 µM.
`CCOP(=O)(O)C1C(CO)OC(n2ccc(=O)[nH]c2=O)C1O` (configuration not stated) was tested, and the TGI was over 100 µM.
In the case of `O=C1NCCCNCCCNCCCNC(=O)c2cccc1n2`, the TGI is reported as over 100 µM.
`CSC1=N/C(=C\c2ccccc2)C(=O)N1CN1CCCCC1` showed a TGI of over 100 µM.
Work on `COC(=O)C1=C(C(=O)OC)c2cc(OC)ccc2C(C(=S)N(C)C)S1` (configuration not stated) yielded a TGI of over 100 µM.

What follows are molecules tested on SF-539 CNS (assay: growth of human tumour cells (NCI), 48 h).
In the case of `Cc1ccc(N=Nc2c(C)c(C#N)c(=S)n(C3OC(CO)C(O)C(O)C3O)c2C)cc1` (configuration not stated), the TGI is reported as over 100 µM.
`C=C(CC[C@@H](C)[C@H]1CC[C@@]2(C)C3=C(CC[C@]12C)[C@@]1(C)CC[C@H](O)[C@@H](C)C1CC3)C(C)C` (some centres not stated) gave a TGI of 2.71 µM.
Work on `Cc1cc(C)n(C2OC(CO)C(O)C(O)C2O)c(=S)c1C#N` (configuration not stated) yielded a TGI of over 100 µM.
In the case of `Cc1ccc(-c2c3nc(c(-c4ccc(C)cc4)c4ccc([nH]4)c(-c4ccc(OCC5COC(C)(C)O5)cc4)c4nc(c(-c5ccc(C)cc5)c5ccc2[nH]5)C=C4)C=C3)cc1` (configuration not stated), the TGI is reported as over 31.6 µM.
`CCn1c2ccccc2n2c(=O)c3c(c(C#N)c12)CCCC3` showed a TGI of over 100 µM.
`CN(/N=C/c1ccc(OCc2cccc(COc3ccc(C=O)cc3)n2)cc1)c1cnn(-c2ccc(Cl)cc2Cl)c(=O)c1Cl` showed a TGI of 46.9 µM.
`CC12CCC([C@H](C(O)C3CCCCC3)C1=O)C2(C)C` (some centres not stated) was tested, and the TGI was over 100 µM.
`C=C1CC[C@H](O)C(C)(C)[C@@H]1CC/C(C)=C/CC/C=C(\C)CC/C=C(\C)CCC=C(C)C` was tested, and the TGI was over 100 µM.
`c1ccc(CSP234N5CCN2CCN3CCN4CC5)c(CSP234N5CCN2CCN3CCN4CC5)c1` showed a TGI of over 100 µM.
With `COc1cc2c(cc1OC)CCc1cc(OC)c(OC)cc1CC2` the TGI was over 100 µM.
In the case of `COc1ccc(N2C(=O)C3ON(C(C(N)=O)c4ccccc4)C(c4cc5ccccc5c5ccccc45)C3C2=O)cc1` (configuration not stated), the TGI is reported as over 50 µM.
For `O=c1[nH]c(Nc2nc3ccccc3[nH]2)nc2c1CCC2`, the TGI was over 100 µM.
With `O=C1N[C@@H](c2c[nH]c3cc(Br)ccc23)C(=O)N[C@H]1c1c[nH]c2cc(Br)ccc12` the TGI was over 100 µM.
For `COc1ccccc1N1CCN(CCCN2/C(=C(\O)c3ccccc3)C(=O)c3c(C)cc(C)nc3S2(=O)=O)CC1`, the TGI was over 100 µM.
For `c1ccc2c(c1)nc1n2CNC1`, the TGI was over 100 µM.
With `Cc1ccc(C)c(COCCOCn2ccc(N)nc2=O)c1` the TGI was over 100 µM.
`CCOP(=O)(O)C1C(CO)OC(n2ccc(=O)[nH]c2=O)C1O` (configuration not stated) showed a TGI of over 100 µM.
`O=C1NCCCNCCCNCCCNC(=O)c2cccc1n2` was tested, and the TGI was over 100 µM.

What follows are molecules tested on SK-MEL-28 melanoma (assay: growth of human tumour cells (NCI), 48 h).
Molecule `Cc1ccc(N=Nc2c(C)c(C#N)c(=S)n(C3OC(CO)C(O)C(O)C3O)c2C)cc1` (configuration not stated) has a TGI of 44.7 µM.
Molecule `C=C(CC[C@@H](C)[C@H]1CC[C@@]2(C)C3=C(CC[C@]12C)[C@@]1(C)CC[C@H](O)[C@@H](C)C1CC3)C(C)C` (some centres not stated) has a TGI of 2.51 µM.
`COc1ccc(N2C(=O)c3cc(C)cnc3S2(=O)=O)cc1` gave a TGI of over 100 µM.
`CC(C)=CC(=O)C[C@H]1C(=O)O[C@@H]2C[C@H]3C(C)=CC(=O)[C@@H](O)[C@]3(C)[C@H]3[C@@]4(O)OC[C@]32[C@@H]1[C@@H](C)[C@H]4O` gave a TGI of 0.172 µM.
`Cn1c(=O)c2[nH]c(CCCCC(=O)O)nc2n(C)c1=O` gave a TGI of over 100 µM.
With `Cc1cc(C)n(C2OC(CO)C(O)C(O)C2O)c(=S)c1C#N` (configuration not stated) the TGI was over 100 µM.
Work on `Cc1ccc(-c2c3nc(c(-c4ccc(C)cc4)c4ccc([nH]4)c(-c4ccc(OCC5COC(C)(C)O5)cc4)c4nc(c(-c5ccc(C)cc5)c5ccc2[nH]5)C=C4)C=C3)cc1` (configuration not stated) yielded a TGI of over 31.6 µM.
`Cc1ccccc1N=Nc1ccc(N/N=C2/CCCNC2=O)c(C)c1` showed a TGI of over 100 µM.
`CCn1c2ccccc2n2c(=O)c3c(c(C#N)c12)CCCC3` gave a TGI of over 100 µM.
With `CN(/N=C/c1ccc(OCc2cccc(COc3ccc(C=O)cc3)n2)cc1)c1cnn(-c2ccc(Cl)cc2Cl)c(=O)c1Cl` the TGI was over 100 µM.
`C=C1CC[C@H](O)C(C)(C)[C@@H]1CC/C(C)=C/CC/C=C(\C)CC/C=C(\C)CCC=C(C)C` gave a TGI of over 100 µM.
Work on `c1ccc(CSP234N5CCN2CCN3CCN4CC5)c(CSP234N5CCN2CCN3CCN4CC5)c1` yielded a TGI of over 100 µM.
Molecule `COc1cc2c(cc1OC)CCc1cc(OC)c(OC)cc1CC2` has a TGI of over 100 µM.
Molecule `COc1ccc(N2C(=O)C3ON(C(C(N)=O)c4ccccc4)C(c4cc5ccccc5c5ccccc45)C3C2=O)cc1` (configuration not stated) has a TGI of over 50 µM.
